The source of these data is patent publication US20110091473A1, “NOVEL ANTIBODY THERAPIES” (GENMAB A/S, priority 2007, published 2011).

One test deals with T1, CD20 on WIL2-S cells (Homo sapiens, UniProt P11836).
T1 construct: endogenous in cells; host or cells: WIL2-S cells
T1 sequence (P11836 1-297): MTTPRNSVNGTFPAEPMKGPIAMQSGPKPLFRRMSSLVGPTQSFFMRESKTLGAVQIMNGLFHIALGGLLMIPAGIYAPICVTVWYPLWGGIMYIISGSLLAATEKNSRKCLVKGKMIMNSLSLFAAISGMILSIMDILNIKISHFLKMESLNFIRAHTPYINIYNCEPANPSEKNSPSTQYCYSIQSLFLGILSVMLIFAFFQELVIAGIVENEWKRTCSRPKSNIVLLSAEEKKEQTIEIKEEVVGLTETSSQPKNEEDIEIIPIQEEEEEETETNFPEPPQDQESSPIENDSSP
The test can be described thus: Binding of anti-CD20 mAb to WIL2-S cells with varied cholesterol content. To be noted: for affinity in binding to cholesterol-depleted cells: WIL2-S cells depleted with lovastatin; for binding affinity after addition of cholesterol: cholesterol added to non-treated control WIL2-S cells; for binding affinity after replenishing of cholesterol: lovastatin-treated WIL2-S cells replenished with cholesterol. The protocol:
To reconstitute cholesterol into the cell membrane of the cells or increase the cholesterol content of the untreated cells, cholesterol (ICN Biomedicals, Zoetermeer, The Netherlands) was added to the test medium in a final concentration of 5 mg/ml 2 hours prior to FACS analysis. The cells were incubated for 30 minutes at 37° C. under gentle shaking conditions, after which the cells were washed twice in PBS and resuspended to 2×10^6 viable cells/ml. For comparison MβCD- and lovastatin-treated cell lines treated with only diluent were included.
To confirm that lovastatin treatment might result in a change in CD20 mAb binding affinity lovastatin-treated RAJI cells were stained with a concentration curve of CD20 mAb. […] After washing with FACS buffer, polyclonal rabbit-anti-human IgG-FITC (DAKO A/S, Denmark) was added for 30 minutes at 4° C. to detect the bound CD20 mAb. Cells were washed again, resuspended in FACS buffer and analyzed on a flow cytometer. The mean fluorescence intensity (MFI) was taken as measure for CD20 binding of the mAb.
Binding of anti-CD20 mAb to CD20 on various B cell lines could be restored upon replenishment of the cell membrane cholesterol content via addition of cholesterol (according to procedure as described in Example 4) to either MβCD- or lovastatin-treated cells, as measured by FACS analysis (FIG. 3). This was also observed for WIL2-S cells for which binding affinity of anti-CD20 mAbs to CD20 was determined after reconstitution of cholesterol of cholesterol-depleted cells using flow cytometry (FIG. 13).

For a further test, the system named is RAJI cells. The test can be described thus: CDC of RAJI cells, MTT analysis. In kind it is cell-based, human. The protocol:
CDC was induced by incubating B cells with anti-CD20 mAb (as described in Example 2). After 1-hour incubation (3-(4,5-dimethylthiazol-2-yl)-2,5-diphenyltetrazolium bromide (MTT) solution (5 mg/ml, Roche, Diagnostics, Almere, The Netherlands) was added to each well (flat-bottom microtiter plates; Nunc, Rochester, N.Y.). The reaction was stopped after 4 hours of incubation at 37° C. by the addition of 100 μl of 20% SDS (Roche Diagnostics, Almere, The Netherlands). After overnight incubation at 37° C. the absorbance of the samples was measured at 550-525 nm using an Elisa reader (EL808x, Biotek instruments, Highland park, Vt., USA). Cytotoxicity was expressed as a relative viability of the stimulated cells compared to cells incubated with medium only and was calculated as follows: relative viability=[(Ae−Ab)/(Ac−Ab)]*100, where Ab is the background absorbance, Ae is experimental absorbance of the lysed cells and Ac is the absorbance of untreated cells. The viability was expressed as percentage survival in comparison to non-cholesterol depleted cells (control).

Test [1] relates to Daudi cells. The test can be described thus: CD20 mAb-induced CDC of Daudi cells, PI/FACS analysis. In kind it is cell-based, human. To be noted: for induction of CDC: non-treated Daudi cells, 15% normal human serum. The protocol:
Cells were either non-treated or cholesterol-depleted as described in Example 2, Example 3 and Example 4, and resuspended in test medium to a concentration of 2×10^6 viable cells/ml. Daudi cells were used as target cells in a mAb-induced CDC assay. 50 μl of cell suspension was incubated with 50 μl anti-CD20 mAb in a serial dilution for 15 minutes at room temperature. After the incubation period, Normal Human Serum (M0008, Sanquin, Amsterdam, The Netherlands) was added as a source of complement (final concentration, 15%) to the cell suspension in round-bottomed microtiter plates (Nunc, Rochester, N.Y.). The mixture was incubated for 45 minutes at 37° C. after which the reaction was stopped by placing the samples on ice. Propidium iodide (PI, Sigma Aldrich, Zwijndrecht, The Netherlands) was added as a means to visualize the DNA content which becomes accessible upon permeabilisation of the cell membrane. The amount of PI-positive cells is directly correlated to the amount of dead cells, and measured using flow cytometry.
For orientation: A flow cytometer gives signals particle by particle.

Test [2] has as its system Daudi cells. The test can be described thus: CDC of Daudi cells, Alamar Blue assay. In kind it is cell-based, human. (In general: The colour change of resazurin is a common sign of viable cells or microbes.)
A further test has as its target T2, CD20 on Daudi cells (Homo sapiens, UniProt P11836).
T2 construct: endogenous in cells; host or cells: Daudi cells
T2 sequence (P11836 1-297): T1 sequence (P11836 1-297)
Briefly: FACS binding of anti-CD20 mAb to MβCD-treated Daudi cells. The protocol:
To deplete cholesterol from the cell membrane, methyl-beta-cyclodextrin (MβCD, Sigma, Zwijndrecht, The Netherlands) was added in varying concentrations to Daudi cells and RAJI-CD20high cells and incubated for 30 minutes at 37° C. under gentle shaking conditions. After incubation the cells were washed twice in PBS and resuspended in test medium to a concentration of 2×10^6 viable cells/ml. […] After washing twice with FACS buffer (PBS, 0.1% Bovine Serum Albumine, 0.02% Sodium Azide), cells were analyzed on a FACS Calibur (Becton Dickinson, Breda, The Netherlands). […] Binding is expressed as mean fluorescence intensity.
Cholesterol was depleted from the cell membrane of various B cells using varying concentrations of MβCD (as described in Example 2). Cells (1×10^5 cells/staining) were incubated with a serial dilution of human CD20 mAb 2F2 starting at saturating concentrations for 30 minutes at 4° C. After washing with FACS buffer, polyclonal rabbit-anti-human IgG-FITC (DAKO A/S, Denmark) was added for 30 minutes at 4° C. The cells were washed again, resuspended in FACS buffer and analyzed by flow cytometry. The mean fluorescence intensity (MFI) is a measure for CD20 binding of the mAb. Sigmoidal dose-response curves were calculated using non-linear regression and the EC50 of mAb binding were determined (using GraphPad Prism 4 statistical software).

As to “rituximab: anti-CD20 antibody Rituxan/MabThera, type I”, in the test with CD20 on WIL2-S cells, the “affinity in binding to cholesterol-depleted cells” value is “reduced affinity”, the “binding affinity after addition of cholesterol” value is “further improved the binding affinity” and the “binding affinity after replenishing of cholesterol” value is listed as “restores affinity to the level of non-treated cells”. Also, the “survival after CDC induction” value with RAJI cells (RAJI cells depleted by lovastatin or MβCD vs non-treated) was “enhanced survival”. Also, in the test on RAJI cells (depleted RAJI cells replenished with cholesterol vs non-treated), the “capability to lyse cells after cholesterol replenishment” value is given as “further increased the capability”. In addition, the CDC-mediated lysis entry in the test with Daudi cells [1] (cholesterol-depleted (lovastatin or MβCD) Daudi cells) is given as “abrogated”. In addition, in the test with Daudi cells [1], the “induction of CDC” value was “induced CDC”. The “survival upon mAb-induced CDC” value in the test on Daudi cells [2] (lovastatin-treated Daudi cells) is given as “enhanced survival”. For the same substance, the “binding affinity upon cholesterol depletion” value in the test with CD20 on Daudi cells (MβCD-treated Daudi cells) is “negatively affected”.
With “2F2: human anti-CD20 mAb, VH SEQ ID NO:1, VL SEQ ID NO:2, disclosed in WO 2004/035607”, in the test with CD20 on WIL2-S cells, the “affinity in binding to cholesterol-depleted cells” value is on record as “reduced affinity”, the “binding affinity after addition of cholesterol” value was “further improved the binding affinity” and the “binding affinity after replenishing of cholesterol” value is “restores affinity to the level of non-treated cells”. Besides, the “potency to lyse cells in presence of complement, compared with rituximab” value in the test with RAJI cells (RAJI cells depleted of cholesterol with MβCD) is “more potent”. In addition, in the test with Daudi cells [1] (cholesterol-depleted Daudi cells), the “cells lysed via CDC” value is 50%. Besides, in the test with Daudi cells [1], the “induction of CDC” value is given as “induced CDC”. The “potency in inducing cell lysis, compared with rituximab or 11B8” value in the test on Daudi cells [2] (Daudi cells) is “more potent”. In the test on Daudi cells [2] (lovastatin-treated Daudi cells), the “CDC induction when treating cells with lovastatin” value is on record as “still capable of inducing CDC” and the “survival upon mAb-induced CDC” value is recorded as “enhanced survival”. Moreover, the “reduction of binding affinity for CD20 (increase in EC50)” value in the test with CD20 on Daudi cells (0 mg/ml vs 5 mg/ml MβCD, Daudi cells) is listed as about 8 fold. Besides, the “binding of FITC-conjugated mAb (mean fluorescence intensity)” value with CD20 on Daudi cells (Daudi cells treated with varying concentrations of MβCD, 30 min) was “dose-dependent decrease in binding”.
